Measurements reported in ChEMBL document CHEMBL5608181, “Discovery of indazole inhibitors for heat shock protein 90 as anti-cancer agents” (Eur J Med Chem, 2024).
Each block holds one compound with its values, some of them ahead of it. Calls of active or inactive are those of the source. The calls are words filed in the database; no cut-off is given here.

Tests used:
BT-474 [1] = assay: Antiproliferative activity against human BT-474 cells assessed as inhibition of cell viability at 10 uM measured after 72 hrs by CellTiter 96 Aqueous One Solution Cell Proliferation Assay relative to control; format: functional
Homo sapiens = organism: Homo sapiens; assay: Inhibition of N-terminal HSP90 (unknown origin) at 10 uM by AlphaLISA assay
JIMT-1 [2] = assay: Antiproliferative activity against human JIMT-1 cells assessed as inhibition of cell viability at 10 uM measured after 72 hrs by CellTiter 96 Aqueous One Solution Cell Proliferation Assay; format: functional, cell-based
HEK293 = assay: Cytotoxicity against HEK293 cells assessed as reduction in cell viability at 10 uM measured after 72 hrs by CellTiter 96 Aqueous One Solution Cell Proliferation Assay; format: toxicity, cell-based; settings: human, hek293, 72 h
BT-474 [3] = assay: Antiproliferative activity against human BT-474 cells assessed as inhibition of cell viability at 10 uM measured after 72 hrs by CellTiter 96 Aqueous One Solution Cell Proliferation Assay; format: functional, cell-based
CYP3A4 = CYP3A4 (Homo sapiens, UniProt P08684); assay: Inhibition of CYP3A4 (unknown origin) at 10 uM relative to control; format: ADME
CYP2C9 = CYP2C9 (Homo sapiens, UniProt P11712); assay: Inhibition of CYP2C9 (unknown origin) at 10 uM relative to control; format: ADME
CYP1A2 = target: T1, CYP1A2 (Homo sapiens, UniProt P05177); assay: Inhibition of CYP1A2 (unknown origin) at 10 uM relative to control; format: ADME
T1 sequence (P05177 whole entry): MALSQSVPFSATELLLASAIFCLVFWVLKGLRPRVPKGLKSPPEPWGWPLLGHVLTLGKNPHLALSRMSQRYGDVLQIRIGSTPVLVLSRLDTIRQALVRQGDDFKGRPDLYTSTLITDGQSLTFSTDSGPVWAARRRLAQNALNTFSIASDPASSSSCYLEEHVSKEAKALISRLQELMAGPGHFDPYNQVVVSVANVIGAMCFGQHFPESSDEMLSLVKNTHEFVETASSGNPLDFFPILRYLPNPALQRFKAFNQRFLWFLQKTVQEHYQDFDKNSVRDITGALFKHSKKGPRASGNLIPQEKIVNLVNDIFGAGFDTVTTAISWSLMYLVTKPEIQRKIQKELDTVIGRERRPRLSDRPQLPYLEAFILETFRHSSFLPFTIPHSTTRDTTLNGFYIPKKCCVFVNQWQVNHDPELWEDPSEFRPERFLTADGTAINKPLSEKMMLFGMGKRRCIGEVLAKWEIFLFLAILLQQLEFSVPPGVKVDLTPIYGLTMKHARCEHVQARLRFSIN

CYP2C19 = CYP2C19 (Homo sapiens, UniProt P33261); assay: Inhibition of CYP2C19 (unknown origin) at 10 uM relative to control; format: ADME
JIMT-1 [4] = assay: Antiproliferative activity against human JIMT-1 cells assessed as inhibition of cell viability at 10 uM measured after 72 hrs by CellTiter 96 Aqueous One Solution Cell Proliferation Assay relative to control; format: functional

Sequence of CYP3A4 (P08684 whole entry): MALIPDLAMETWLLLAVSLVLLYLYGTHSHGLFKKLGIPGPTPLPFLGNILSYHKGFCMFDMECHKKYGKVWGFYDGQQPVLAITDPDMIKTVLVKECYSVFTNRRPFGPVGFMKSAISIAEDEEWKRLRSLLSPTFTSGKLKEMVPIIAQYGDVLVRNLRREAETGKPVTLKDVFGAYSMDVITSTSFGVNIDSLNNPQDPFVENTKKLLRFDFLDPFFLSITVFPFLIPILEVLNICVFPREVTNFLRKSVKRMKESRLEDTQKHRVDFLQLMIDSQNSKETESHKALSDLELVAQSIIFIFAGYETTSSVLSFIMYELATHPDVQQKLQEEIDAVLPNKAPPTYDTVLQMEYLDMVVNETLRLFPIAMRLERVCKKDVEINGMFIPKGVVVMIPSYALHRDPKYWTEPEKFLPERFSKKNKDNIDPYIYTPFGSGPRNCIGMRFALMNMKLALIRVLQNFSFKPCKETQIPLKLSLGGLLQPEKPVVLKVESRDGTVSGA
Sequence of CYP2C19 (P33261 whole entry): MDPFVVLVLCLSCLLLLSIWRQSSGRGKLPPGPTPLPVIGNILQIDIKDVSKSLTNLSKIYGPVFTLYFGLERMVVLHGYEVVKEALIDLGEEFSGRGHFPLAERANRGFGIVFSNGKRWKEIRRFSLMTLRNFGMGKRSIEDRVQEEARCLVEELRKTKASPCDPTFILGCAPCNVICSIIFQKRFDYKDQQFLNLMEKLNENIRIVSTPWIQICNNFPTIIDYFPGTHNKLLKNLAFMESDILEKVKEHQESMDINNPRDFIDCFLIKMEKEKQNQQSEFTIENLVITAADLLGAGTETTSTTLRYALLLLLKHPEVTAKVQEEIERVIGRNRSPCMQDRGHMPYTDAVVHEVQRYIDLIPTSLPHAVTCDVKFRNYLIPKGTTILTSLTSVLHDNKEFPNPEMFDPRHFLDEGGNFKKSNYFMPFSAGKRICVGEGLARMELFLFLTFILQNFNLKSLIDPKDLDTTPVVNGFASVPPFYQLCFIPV
Sequence of CYP2C9 (P11712 whole entry): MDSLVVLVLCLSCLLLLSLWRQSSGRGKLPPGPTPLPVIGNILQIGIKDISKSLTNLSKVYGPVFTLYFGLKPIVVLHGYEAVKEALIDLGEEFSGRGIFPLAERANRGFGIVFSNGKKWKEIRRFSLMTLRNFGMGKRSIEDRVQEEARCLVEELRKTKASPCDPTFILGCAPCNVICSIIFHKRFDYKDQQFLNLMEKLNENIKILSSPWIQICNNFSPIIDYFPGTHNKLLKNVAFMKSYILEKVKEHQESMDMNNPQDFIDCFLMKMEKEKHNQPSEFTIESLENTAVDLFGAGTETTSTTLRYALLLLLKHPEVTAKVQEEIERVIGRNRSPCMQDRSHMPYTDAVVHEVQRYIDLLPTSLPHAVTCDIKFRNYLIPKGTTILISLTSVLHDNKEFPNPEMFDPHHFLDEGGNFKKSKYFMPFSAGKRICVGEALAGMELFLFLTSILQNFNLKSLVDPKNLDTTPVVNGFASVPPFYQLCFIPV

Compound: COc1c(C(=O)Nc2ccc3c(C)nn(CCN4CCOCC4)c3c2)ccc2c1C=CC(C)(C)O2
inhibition at 10 µM (BT-474 [1]): > 50%

inhibition (Homo sapiens): Active
Compound: CC(C)c1cc(-c2n[nH]c(=O)n2-c2ccc3c(ccn3C)c2)c(O)cc1O

Compound: COc1c(C(=O)Nc2nn(CCC3CCN(C)CC3)c3ccccc23)ccc2c1C=CC(C)(C)O2
inhibition at 10 µM (BT-474 [1]): > 50%

Compound: COCCn1cc(NC(=O)c2ccc3c(c2OC)C=CC(C)(C)O3)c2cccnc21
Activity (JIMT-1 [2]): Active
Activity (HEK293): Toxic
Activity (BT-474 [3]): Active

Compound: CC(=O)N1CCN(c2ccc(OCC3COC(Cn4ccnc4)(c4ccc(Cl)cc4Cl)O3)cc2)CC1 (stereo not drawn) [KETOCONAZOLE]
inhibition at 10 µM (CYP3A4): 32%
inhibition at 10 µM (CYP2C9): 96.8%
inhibition at 10 µM (CYP1A2): > 100%
inhibition at 10 µM (CYP2C19): > 100%

Compound: COCCn1nc(NC(=O)c2ccc3c(c2OC)C=CC(C)(C)O3)c2ccccc21
Activity (HEK293): Toxic
inhibition at 10 µM (JIMT-1 [4]): > 50%
inhibition at 10 µM (BT-474 [1]): > 50%
